# In patent US9468641B2, “Anti-inflammatory pharmaceutical composition comprising benzopyranyl tetracycles” (SEOUL NATIONAL UNIVERSITY R&DB FOUNDATION, priority 2014, dated 2016):
# Tests used:
# HMGB2 and HMGB1 = assay: Immunoprecipitation analysis of post-translational modification; format: cell-based; settings: western blotting, FIG. 18
# Experimental: (§1) After exposure to ICM in the presence of LPS for 18 hrs, cells were lysed in subcellular fraction buffer (250 mM sucrose, 20 mM HEPES, 10 mM KCl, 1 mM EDTA, 1 mM EGTA, 1 mM DTT, and protease inhibitor cocktail), passed through a 25-Ga needle several times, and incubated on ice for 20 min. After centrifugation at 3,000 rpm for 5 min, the pellet and the supernatant were separated. The nuclear pellet was washed and then resuspended in standard lysis buffer with 10% glycerol and 0.1% SDS. The cytosolic fraction was obtained by centrifugation of the separated supernatant at 8,000 rpm for 15 min. The conditioned medium was collected for the analysis of the extracellular level of HMGBs and concentrated with Amicon Ultra 10K filters. The samples were analyzed by electrophoresis and western blotting.
# For the analysis of post-translational modification levels on HMGB, immunoprecipitation was performed. […] The concentration of protein was measured by BCA assay, and the lysates were incubated overnight with an anti-phosphoserine antibody or an anti-acetylated lysine antibody at 4° C., followed by precipitation with a protein G immunoprecipitation kit (Sigma). Each of the samples was analyzed for HMGB2 level by western blot assays.
# [1] = test system: proinflammatory cytokine TNFα; assay: TNF-α ELISA of LPS-induced secretion; format: cell-based; settings: FIG. 4
# Experimental: TNF-α secretion was measured using a TNF-α ELISA kit. Cells were treated with LPS in the absence or presence of ICM. After 24 hrs of incubation, the levels of TNF-α in the culture medium were measured with rat monoclonal anti-mouse TNF-α antibody as a capture antibody, and goat biotinylated polyclonal anti-mouse TNF-α antibody as a detection antibody. The biotinylated anti-TNF-α antibody was detected by sequential incubation with streptavidin-horseradish peroxidase conjugate. After incubation with a TMB substrate for 20 min, the color development was stopped by adding 2 N H2SO4. The absorbance was then read (450 nm and 540 nm) using a microplate reader.
# [2] = test system: LPS-mediated microglial activation; assay: LPS neuroinflammation model; format: in vivo, C57BL/6 mice; settings: cortex, substantia nigra, hippocampus; ICM 2 and 10 mg/kg, FIG. 19
# Experimental: All experiments were performed on 11-week-old male C57BL/6 mice. The animals were divided into four experimental groups (group 1: control treated with vehicle; group 2: treated with ICM; group 3: treated with LPS and vehicle; and group 4: treated with LPS and ICM). ICM (2 or 10 mg per kg body weight) or vehicle (distilled water containing 5% DMSO and 40% polyethylene glycol) was administered once a day for 4 days. LPS was administered at a dose of 5 mg/kg on day 2 for a single challenge.
# Mice were anesthetized with diethyl ether, transcardially perfused with cold saline, and then fixed with 4% paraformaldehyde diluted in 0.1 M PBS. Brains or lumbar spinal cords were fixed using 4% PFA for 3 days and then cryoprotected with a 30% sucrose solution for 3 days. Three animals were used per experimental group. The fixed brains and spinal cords were embedded in OCT compound for frozen sectioning and then sectioned coronally at 20 μm. To detect LPS-induced microglial activation, each section was incubated with a rabbit anti-Iba-1 antibody and FluoroMyelin. The sections were visualized directly or incubated with Cy3-conjugated anti-rabbit IgG antibody. Also, the sections were stained with hematoxylin and eosin to assess inflammatory lesions.
# HMGB2 = target: T1, HMGB2 (Mus musculus, UniProt P30681); assay: Subcellular fractionation and secretion analysis; format: cell-based; settings: LPS stimulation, western blotting, FIG. 17
# T1 construct: endogenous in cells
# T1 sequence (P30681 1-210): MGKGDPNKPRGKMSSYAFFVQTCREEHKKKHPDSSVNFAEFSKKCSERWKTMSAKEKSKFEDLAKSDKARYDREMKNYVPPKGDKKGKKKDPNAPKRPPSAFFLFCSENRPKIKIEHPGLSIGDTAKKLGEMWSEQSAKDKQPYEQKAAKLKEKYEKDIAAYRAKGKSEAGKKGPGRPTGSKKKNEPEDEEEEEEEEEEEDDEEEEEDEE
# Experimental: as §1
# NF-κB signaling (p65) = assay: Immunofluorescence staining of nuclear translocation of p65; format: cell-based; settings: LPS stimulation, FIG. 5
# Experimental: Cells were pretreated with ICM and LPS for 1 hr and then fixed with 4% paraformaldehyde for 30 min at 20° C. and with cold methanol for 10 min at −20° C. After permeabilization with 0.3% Triton X-100 and PBS for 10 min, the fixed cells were blocked with 1% normal horse serum for 1 hr and incubated with mouse anti-p65 antibody at 4° C. for 12˜16 hrs. After washing with PBS containing 0.05% Tween-20 (PBST), Alexa Fluor-488-labeled goat anti-mouse IgG antibody was added to the sample, incubated for 1 hr at room temperature and washed with PBST. Nuclei were visualized by DAPI staining. Samples were analyzed by fluorescence microscopy.
# purified HMGB2 protein = target: T2, purified HMGB2 protein (Homo sapiens, UniProt P26583); assay: SPR (surface plasmon resonance) assay; format: binding; settings: 1, 15, 30, 50, 75, and 100 μM ICM, FIG. 13
# T2 sequence (P26583 1-209): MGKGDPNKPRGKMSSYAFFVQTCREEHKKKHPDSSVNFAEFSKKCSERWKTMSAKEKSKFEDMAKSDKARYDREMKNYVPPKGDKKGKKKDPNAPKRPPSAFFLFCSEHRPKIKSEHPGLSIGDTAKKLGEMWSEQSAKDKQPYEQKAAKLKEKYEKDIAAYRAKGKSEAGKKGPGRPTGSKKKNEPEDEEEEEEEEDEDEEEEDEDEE
# Experimental: To determine the dissociation constant of the interaction of ICM with HMGB, SPR analysis was performed using Biacore T100. A carboxyl group bound onto a CM5 chip of the biosensor was activated with EDC(1-ethyl-3-(3-dimethylaminopropyl)-carbodiimide) and NHS(N-hydroxysuccinimide) to form reactive succinimide ester. HMGB1 (10 mM Na-acetate, pH 4.0) and HMGB2 (10 mM Na-acetate, pH 4.5) proteins were immobilized via an amide bond onto the sensor chip, followed by quenching excess succinimide ester with 1 M ethanolamine-HCl (pH 8.0). PBS was used as a running buffer for the immobilization. After immobilization, various concentrations of ICM were injected (for 60 sec at a flow rate of 30 μl/min). […] For this, a buffer containing 10-mM HEPES (pH 7.4), 5% DMSO, 150 mM NaCl, 3 mM EDTA, and 0.005% P20 was injected. Binding was measured at 25° C. The measurements were analyzed using Biacore T100 Evaluation software (GE Healthcare). Finally, the curve was obtained by normalizing to the control. The dissociation constant was calculated by fitting the curve to the 1:1 binding model.
# EAE model = assay: Experimental auto-immune encephalitis (EAE) model; format: in vivo, C57BL/6 mice
structure (smiles),measurement,setting,value
CC1(C)Oc2cc(O)ccc2C2C1=CCn1c(=O)n(-c3ccccc3)c(=O)n12 (centres unmarked) [ICM],LPS-induced phosphorylation and acetylation of HMGB2 and HMGB1,HMGB2 and HMGB1,the post-translational modification was suppressed by ICM
same,LPS-induced secretion of TNFα,[1],suppressed LPS-induced secretion of the proinflammatory cytokine
same,LPS-mediated microglial activation (Iba-1+ cell number),[2],effectively blocked LPS-mediated microglial activation in all the brain parts
same,translocation of HMGB2 from nucleus to cytoplasm and extracellular milieu,HMGB2,the translocation was suppressed by ICM
same,nuclear translocation of p65,NF-κB signaling (p65),suppressed NF-κB signaling
same,binding to HMGB (SPR sensorgram),purified HMGB2 protein,binds directly to HMGB
same,HMGB2 levels in cerebrospinal fluid and serum,"EAE model; ELISA, FIG. 24",effectively suppressed the release of HMGB2 into body fluids
same,microglial activation in spinal cords (anti-Iba-1 staining),EAE model; FIG. 21,clearly suppressed by ICM treatment
same,mRNA levels of proinflammatory cytokines and chemokines in microglia,"EAE model; RT-PCR, microglial cells from brain of EAE mice, FIG. 23",decreased in the ICM-treated group
same,mean clinical score (0-5 scale),"EAE model; days after MOG immunization, FIG. 20",reduced with ICM treatment
same,HMGB1 or HMGB2 levels in spinal cord sections,"EAE model; immunofluorescence, FIG. 25",effectively reduced the EAE-induced increase of HMGB1 or HMGB2 levels
same,MAP-2 levels in ventral horn and ventral column,"EAE model; immunofluorescence, FIG. 26",effectively recovered by ICM administration
same,inflammatory lesions in spinal cords (H&E staining),"EAE model; lumbar spinal cord, 15 days after EAE induction, FIG. 22",substantially attenuated by ICM treatment
same,demyelination (anti-MBP staining),"EAE model; spinal cord sections, FIG. 27",suppresses the demyelination in the EAE model
